Results from patent US20180042223A1, “COMPOSITION COMPRISING A HYDROGEL AND PESTICIDES” (priority 2014, published 2018).

Test system: spider mite (Tetranychus uricae)
Test: Effectiveness of pesticide with NovioHelix hydrogel adjuvant: dead percentage of spider mites on paprika plants
Type: in vivo
Details: day 5 after treatment; infected paprika plants; applied till run off; Noviohelix 3 mg/mL where used
Experimental: Paprika plants infected with spider mite (Tetranychus uricae) were used as experiment samples. All paprika (±20cm) were artificially infected with spiders 5 days before the experiments. The insecticide Spiromesifen (Spiromesifen, 240 g/l, Oberon) was used to against spiders. Noviohelix (3 mg/mL) was used as an adjuvant. All samples were applied with pesticide until ‘till run off’ (the first droplet of a composition fall off the leave). The effectiveness of Spiromesifen either with or without NovioHelix was determined based on the dead percentage of spiders after treatment. The spiders both in mature and immature phases were counted before and at day 5 after experiment.

## Cc1cc(C)c(C2=C(OC(=O)CC(C)(C)C)C3(CCCC3)OC2=O)c(C)c1 [Spiromesifen]
  % dead (dead percentage of spider): 84.8%
